Results reported in publication PMC7690585, “Target-Mediated Brain Tissue Binding for Small Molecule Inhibitors of Heat Shock Protein 90” (Pharmaceutics, 2020).

Test: in vitro
Conditions: NMRI, mouse, brain homogenate, pH 7
Description: Brain tissue from Naval Medical Research Institute (NMRI) mice was homogenized in phosphate buffer (1 g: 2 mL) and stored in −80 °C freezer before use. For dialysis experiment, 150 µL of brain homogenate (fresh blood collected on EDTA-K2 and diluted 1:1 with phosphate buffer or plasma) was added to one compartment of a dialysis plate (assembled according to the manufacturer instructions with a dialysis membrane between the 2 compartments) against 150 µL of phosphate buffer pH 7. The test compound was added to the compartment with brain homogenate (or plasma) and the plate was incubated in an incubator with a 5% CO2 and rotating at 150 rpm for 5 h. At the end of the incubation time, aliquots of 90 µL of samples were removed from both the buffer and the brain homogenate compartments. The aliquots were added to 120 µL of acetonitrile containing the internal standard. The mixture was centrifuged at 4000 rpm for 10 min and the supernatant was collected for LC-MS/MS analysis. All equilibrium dialysis studies were performed in triplicate at each tested concentration.
Binding to brain tissues was assessed using 6 different concentrations of test items ranging from 0.3 to 100 µM. Warfarin was used as control.
Determination of fractions unbound was conducted according to the equations below:fu = Creceiver (CT0 − Creceiver)(1)
In brain homogenate (blood or plasma):(2) % Undiluted fu=100 ×1/D/1/fu−1+1/D (3) % Recovery=100 × Creceiver +Cdonor/CT0 where
Dilution factor (D) is determined as 3 in this assay.

## CC(=O)CC(c1ccccc1)c1c(O)c2ccccc2oc1=O (stereo not shown) [Warfarin]
5 h
  Ratio (30 µM/1 µM) Unbound Fractions in Brain: 1.5
  fraction unbound at 5 h, 0.3 µM: 0.086 ± 0.002
  fraction unbound at 5 h, 1 µM: 0.112 ± 0.001
  fraction unbound at 5 h, 3 µM: 0.143 ± 0.005
  fraction unbound at 5 h, 10 µM: 0.143 ± 0.006
  fraction unbound at 5 h, 30 µM: 0.168 ± 0.006
  fraction unbound at 5 h, 100 µM: 0.179 ± 0.009
